Where two headings read alike, the source gives them in different places.

A word on the Ki: it is the equilibrium dissociation constant of an inhibitor or competing ligand from its target. A word on the melting point: it is the temperature of the solid-liquid transition.

For one series, the target named is T1, σ1-receptor (Cavia porcellus, UniProt Q60492).
T1 construct: guinea pig brains were homogenized; from tissue; host or cells: guinea pig brain membranes
The experiment in a line: Sigma-1 receptor binding, [3H](+)-pentazocine, brain membranes. Also noted: species or system guinea pig. The note with it: for inhibition at 1 µM: 2.5 h, read-out: binding sigma-1 (*) % of radioactively labeled compound replaced by the tested compound.

A further series concerns the target T2, σ2-receptor (Mus musculus, UniProt Q8VD00).
T2 construct: brains from sigma receptor type I (sigma-1) knockout mice were homogenized; from tissue; host or cells: brain membranes of sigma-1 knockout mice
T2 sequence (Q8VD00 1-176): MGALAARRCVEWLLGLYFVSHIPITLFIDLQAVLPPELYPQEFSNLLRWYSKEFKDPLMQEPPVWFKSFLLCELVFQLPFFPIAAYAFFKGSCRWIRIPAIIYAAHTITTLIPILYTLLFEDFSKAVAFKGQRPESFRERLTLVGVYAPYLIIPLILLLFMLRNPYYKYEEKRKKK
The series is described as follows: Sigma-2 receptor binding, [3H]-DTG, brains from sigma-1 knockout mice. The following applies: for inhibition at 1 µM: 2 h, tested compound at 10^-6 M, [3H]-DTG 3 nM, read-out: binding sigma-2 (*) % of radioactively labeled compound replaced by the tested compound; for Ki: [3H]-DTG, sigma-1 knockout mouse brain. As for the experimental part: In brief, brains from sigma receptor type I (sigma-1) knockout mice were homogenized in a volume of 10 mL/g tissue net weight of ice-cold 10 mM Tris-HCl, pH 7.4, containing 320 mM sucrose (Tris-sucrose buffer) with a Potter-Elvehjem homogenizer (10 strokes at 500 r.p.m.) The homogenates were then centrifuged at 1000 g for 10 min at 4° C., and the supernatants were saved. The pellets were resuspended by vortexing in 2 mL/g ice-cold Tris-sucrose buffer and centrifuged again at 1000 g for 10 min. The combined 1000 g supernatants were centrifuged at 31000 g for 15 min at 4° C. The pellets were resuspended by vortexing in 3 mL/g 10 mM Tris-HCl, pH 7.4, and the suspension was kept at 25° C. for 15 min.
The assay tubes contained 10 μL of [^3H]-DTG (final concentration of 3 nM), 400 μL of the tissue suspension (5.3 mL/g in 50 mM Tris-HCl, pH 8.0) to a final assay volume of 0.5 mL. Non-specific binding was defined by addition of a final concentration of 1 μM haloperidol. […] Filters were washed with three times with 5 mL volumes of cold Tris-HCl buffer (10 mM, pH 8.0). Following addition of scintillation cocktail samples were allowed to equilibrate overnight.

[1] abbreviates: tested compound at 10^-6 M, [3H](+)-pentazocine 0.5 nM.
Where [2] appears, read: [3H](+)-pentazocine, guinea pig brain membranes, read-out: binding sigma-1 Ki.

T1 sequence (Q60492 whole entry): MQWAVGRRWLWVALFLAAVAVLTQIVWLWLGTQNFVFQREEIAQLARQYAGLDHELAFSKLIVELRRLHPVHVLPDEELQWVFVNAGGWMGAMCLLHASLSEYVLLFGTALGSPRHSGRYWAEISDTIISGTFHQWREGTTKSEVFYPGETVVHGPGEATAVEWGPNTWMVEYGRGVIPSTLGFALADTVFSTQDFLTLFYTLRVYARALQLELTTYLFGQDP

For `O=C(O)C(=O)O.c1ccc(-n2ncc3c2CCC3CCN2Cc3ccccc3C2)cc1` (stereo not shown) [Example 35, 2-(2-(1,4,5,6-tetrahydro-1-phenylcyclopenta[c]pyrazol-4-yl)ethyl)isoindoline oxalate], the melting point lay within 195 to 197 °C. The inhibition at 1 µM at σ1-receptor (setting [1]) was determined as 101%. Further, the Ki at σ1-receptor (setting [2]) turned out to be 9.3 nM. Further, the inhibition at 1 µM at σ2-receptor is 26.4%.
`O=C(O)C(=O)O.c1ccc(-n2ncc3c2CCC3CCN2CCc3ccccc3C2)cc1` (stereo not shown) [Example 44, 1,2,3,4-tetrahydro-2-(2-(1,4,5,6-tetrahydro-1-phenylcyclopenta[c]pyrazol-4-yl)ethyl)isoquinoline oxalate]: the melting point was 200.5 to 203 °C. On σ1-receptor (setting [1]), the inhibition at 1 µM was found to be 106%. Besides, the inhibition constant Ki at σ1-receptor (setting [2]) turned out to be 2 nM. Further, at σ2-receptor, the inhibition at 1 µM worked out at 99.4% and the inhibitory constant (Ki) turned out to be 159 nM.
For `c1ccc(CN2CCN(CCC3CCCc4c3cnn4-c3ccccc3)CC2)cc1` (stereo not shown) [Example 10, 4-(2-(4-benzylpiperazin-1-yl)ethyl)-4,5,6,7-tetrahydro-1-phenyl-1H-indazole], the melting point was in the range of 98 to 101 °C. Besides, the inhibition at 1 µM at σ1-receptor (setting [1]) amounted to 100%. On σ1-receptor (setting [2]), the Ki was found to be 6.1 nM. Moreover, the inhibition at 1 µM at σ2-receptor turned out to be 70.2%.
`C[C@@H]1CN(CCC2CCCc3c2cnn3-c2ccccc2)C[C@H](C)O1.O=C(O)C(=O)O` (stereo partly drawn) [Example 49, cis-4,5,6,7-tetrahydro-4-(2-(2,6-dimethylmorpholin-4-yl)ethyl)-1-phenyl-1H-indazole oxalate] came in with a melting point of 186.6 to 190 °C. Further, the inhibition at 1 µM at σ1-receptor (setting [1]) was determined as 101%. Moreover, the Ki at σ1-receptor (setting [2]) was determined as 7.6 nM. At σ2-receptor, the inhibition at 1 µM is 94.6%.
For `C(/CN1CCCCCC1)=C1/CCCc2c1cnn2-c1ccccc1.O=C(O)C(=O)O` [Example 16, (E)-4-(2-(azepan-1-yl)ethylidene)-4,5,6,7-tetrahydro-1-phenyl-1H-indazole oxalate], in that order: 171 to 173 °C, 99.9%, 1.5 nM and 93%.
As for `C(/CN1CCCC(c2ccccc2)C1)=C1/CCCc2c1cnn2-c1ccccc1` (stereo not shown) [Example 23, (E)-4,5,6,7-tetrahydro-1-phenyl-4-(2-(3-phenylpiperidin-1-yl)ethylidene)-1H-indazole], the melting point was in the range of 136 to 138 °C. Further, the inhibition at 1 µM on σ1-receptor (setting [1]) is 99.4%. Further, the inhibitory constant (Ki) on σ1-receptor (setting [2]) was found to be 23.3 nM. For the same molecule, the inhibition at 1 µM on σ2-receptor turned out to be 67.4%.
In turn, `C[C@@H]1CN(CCC2CCc3c2cnn3-c2ccccc2)C[C@H](C)O1.O=C(O)C(=O)O` (stereo partly drawn) [Example 47, cis-1,4,5,6-tetrahydro-4-(2-(2,6-dimethylmorpholin-4-yl)ethyl)-1-phenylcyclopenta-[c]pyrazole oxalate] had a melting point of 160.2 to 161.5 °C. On σ1-receptor (setting [1]), the inhibition at 1 µM came to 104%. Besides, at σ1-receptor (setting [2]), the inhibition constant Ki is 1.8 nM. The inhibition at 1 µM on σ2-receptor stood at 95.9%.
`C(/CN1CCOCC1)=C1/CCCc2c1cnn2-c1ccccc1` [Example 5, (E)-4,5,6,7-tetrahydro-4-(2-(morpholin-4-yl)ethylidene)-1-phenyl-1H-indazole] displayed a melting point of 114 to 116 °C. For the same molecule, the inhibition at 1 µM at σ1-receptor (setting [1]) is 94%. Besides, the Ki on σ1-receptor (setting [2]) was 37.2 nM. Besides, the inhibition at 1 µM at σ2-receptor was found to be 39%.
Take `C[C@@H]1CN(CCC2CCCc3c2cnn3-c2ccc(F)cc2)C[C@H](C)O1.O=C(O)C(=O)O` (stereo partly drawn) [Example 68, cis-1-(4-fluorophenyl)-4,5,6,7-tetrahydro-4-(2-(2,6-dimethylmorpholin-4-yl)ethyl)-1H-indazole oxalate]: the melting point fell in the range of 164 to 169 °C. Also, the inhibition at 1 µM at σ1-receptor (setting [1]) amounted to 98%. At σ1-receptor (setting [2]), the Ki was determined as 14.9 nM. Besides, on σ2-receptor, the inhibition at 1 µM came to 99.8% and the inhibition constant (Ki) amounted to 35.2 nM.
In the case of `O=C(O)C(=O)O.c1ccc(-n2ncc3c2CCCC3CCN2CCC3(CC2)OCc2ccccc23)cc1` (stereo not shown) [Example 12, 4,5,6,7-tetrahydro-1-phenyl-4-(2-[spiro[isobenzofuran-1(3H), 4′-piperidin]-1′-yl]ethyl)-1H-indazole oxalate], the melting point lay in the range of 133 to 135 °C. In addition, on σ1-receptor, the affinity, expressed as Ki, was 0.9 nM and the inhibition at 1 µM turned out to be 100%. Also, on σ2-receptor, the inhibition at 1 µM stood at 98.8% and the inhibition constant Ki was determined as 37 nM.
As for `C(/CN1CCC2(CC1)OCc1ccccc12)=C1/CCCc2c1cnn2-c1ccccc1.O=C(O)C(=O)O` [Example 19, (E)-4,5,6,7-tetrahydro-1-phenyl-4-(2-[spiro[isobenzofuran-1(3H), 4′-piperidin]-1′-yl]ethylidene)-1H-indazole oxalate], the melting point is 155 to 157 °C. On σ1-receptor, the Ki is 4.9 nM and the inhibition at 1 µM came to 100%. In addition, on σ2-receptor, the inhibition at 1 µM was found to be 91% and affinity was put at a Ki of 479 nM.
`O=C(O)C(=O)O.c1ccc(-n2ncc3c2CCC3CCN2CCOCC2)cc1` (stereo not shown) [Example 31, 1,4,5,6-tetrahydro-4-(2-(morpholin-4-yl)ethyl)-1-phenylcyclopenta[c]pyrazole oxalate] came in with a melting point of 159 to 161.8 °C. Also, the inhibition at 1 µM at σ1-receptor (setting [1]) was determined as 101%. On σ1-receptor (setting [2]), the inhibition constant Ki came to 1.2 nM. Further, on σ2-receptor, the inhibition at 1 µM came to 88.7% and the Ki stood at 17.5 nM.
The like results for `O=C(O)C(=O)O.c1ccc(C2CCN(CCC3CCCc4c3cnn4-c3ccccc3)CC2)cc1` (stereo not shown) [Example 9, 4,5,6,7-tetrahydro-1-phenyl-4-(2-(4-phenylpiperidin-1-yl)ethyl)-1H-indazole oxalate] were, in that order, 124 to 125 °C, 101%, 1.5 nM, 107% and 37.5 nM.
Take `O=C(O)C(=O)O.c1ccc(-n2ncc3c2CCCC3CCN2Cc3ccccc3C2)cc1` (stereo not shown) [Example 56, 4,5,6,7-tetrahydro-4-(2-(isoindolin-2-yl)ethyl)-1-phenyl-1H-indazole oxalate]: the melting point was in the range of 195.7 to 200 °C. Also, the inhibition at 1 µM on σ1-receptor (setting [1]) was 106%. In addition, the inhibitory constant (Ki) on σ1-receptor (setting [2]) worked out at 0.3 nM. At σ2-receptor, the inhibition at 1 µM was 109% and the Ki was determined as 1.4 nM.
For `Cn1ncc2c1CCCC2CCN1Cc2ccccc2C1.O=C(O)C(=O)O` (stereo not shown) [Example 60, 4,5,6,7-tetrahydro-4-(2-(isoindolin-2-yl)ethyl)-1-methyl-1H-indazole oxalate], in that order: 150 to 151 °C, 104%, 3.1 nM, 88.2% and 18.8 nM.
With `Clc1ccc(-n2ncc3c2CCCC3CCN2CCOCC2)cc1Cl.O=C(O)C(=O)O` (stereo not shown) [Example 7, 1-(3,4-dichlorophenyl)-4,5,6,7-tetrahydro-4-(2-(morpholin-4-yl)ethyl)-1H-indazole oxalate], the melting point was in the range of 148 to 149.8 °C. Besides, the inhibition at 1 µM on σ1-receptor (setting [1]) stood at 100%. In addition, the inhibitory constant (Ki) at σ1-receptor (setting [2]) was 4.3 nM. The inhibition at 1 µM on σ2-receptor was found to be 98.1%.
In turn, `O=C(O)C(=O)O.c1ccc(-n2ncc3c2CCC3CCN2CCC3(CC2)OCc2ccccc23)cc1` (stereo not shown) [Example 51, 1,4,5,6-tetrahydro-1-phenyl-4-(2-[spiro[isobenzofuran-1(3H), 4′-piperidin]-1′-yl]ethyl)cyclopenta[c]pyrazole oxalate] yielded a melting point of 170.5 to 173.6 °C. In addition, on σ1-receptor, the affinity corresponds to a Ki of 31.3 nM and the inhibition at 1 µM worked out at 107%. Moreover, the inhibition at 1 µM on σ2-receptor stood at 113%.

These data come from US8394797B2, “Substituted pyrazole sigma receptor antagonists” (Laboratorios Del Dr. Esteve, S.A., priority 2004, dated 2013).
